Assay results taken from patent publication US11918628B2, “Controlled-release PTH compound” (ASCENDIS PHARMA BONE DISEASES A/S, priority 2016, dated 2024).

What was measured:
[1] = test system: rats; conditions: daily injections; cited from earlier work
[2] = test system: patients with hypoparathyroidism; conditions: cited from earlier work
[3] = test system: patients with hypoparathyroidism; conditions: cited from earlier work; remark: listed apart in the source
[4] = test system: TPTx rats; assay: 28-days study in thyroparathyroidectomised (TPTx) rats with daily subcutaneous injections of conjugate 18 or PTH(1-84); format: in vivo, rat
Protocol: Quantitative measurements of serum calcium (sCa), urinary calcium and serum phosporous (sP) were performed on a Roche-Hitachi P800 modular biochemistry instrument.
This study was performed in order to test and compare the effect of daily subcutaneous injection of compound 18 and PTH(1-84), the current standard of care, in an animal disease model relevant for investigating treatment of hypoparathyroidism (HP). Rats subjected to thyroparathyroidectomy (TPTx) by blunt dissection are unable to produce parathyroid hormone, PTH, the major regulator of calcium homeostasis. […] 17 weeks old female SD TPTx rats (n=9/group) were dosed subcutaneously for 28 days with compound 18 ([…]; 1.2 nmol/kg/d, in 10 mM succinic acid, 46 g/L mannitol, pH 4.0), PTH(1-84) (70 μg PTH eq/kg/d; 7.3 nmol/kg/d; in 10 mM citrate, mannitol 39.0 g/L, pH 5.0) or vehicle. Additionally, one group of sham operated rats (n=9) representing normophysiological background control were also given vehicle. Serum calcium (sCa) and phosporous (sP) levels in the animals were measured pre- and post-dose on days 1, 6, 12 and 27. Moreover, bone turnover markers (P1NP and CTx) were measured and bone quality assessed by ex vivo pQCT.

[5] = test system: patients; conditions: 6-year follow-up; cited from earlier work

Row | Molecule | osteosarcoma rate [1] | daily dose with pump delivery, lower than with the twice daily injection regimen ([2]; pump delivery versus twice daily injection) [%] | calcium levels with pump delivery ([2]; pump delivery, over 6-months) | urinary calcium excretion with pump delivery ([2]; pump delivery) | urinary calcium excretion 2-8 hours after injection ([3]; 2-8 hours after injection) | urinary calcium excretion over the 24-hour period ([3]; 24-hour period after injection) | urinary phosphate excretion ([3]; after injection) | participants who achieved normal blood calcium levels on reduced doses of calcium supplements and active forms of vitamin D ([3]; pivotal trial, once-daily sc, adjunct to vitamin D and calcium) [%] | patients who developed hypercalcemia at one or more measurements during a 24-hour period ([3]; serum calcium monitored after injection) [%] | incidences of hypercalcemia, hypocalcemia or hypercalciuria relative to conventional therapy ([3]; treated patients) | trabecular and cortical BMD/bone in vertebrae after 28 days of treatment ([4]; TPTx rats, 28 days daily sc) | trabecular BMD compared to both control groups ([4]; TPTx rats, 28 days daily sc, 7.3 nmol/kg/d) | sCa ratio treated/sham-control at day 12 ([4]; TPTx rats, daily sc, day 12) | effect on serum phosphorous (sP) ([4]; TPTx rats, daily sc, compound 18 1.2 nmol/kg/d, PTH(1-84) 7.3 nmol/kg/d) | effect on serum calcium (sCa) ([4]; TPTx rats, daily sc, compound 18 1.2 nmol/kg/d, PTH(1-84) 7.3 nmol/kg/d, versus vehicle-injected TPTx rats) | serum calcium (sCa) at day 12 ([4]; female SD TPTx rats, daily sc, day 12) [mg/dL] | bone mineral density (BMD) by DXA [5] | bone turnover markers [5]
1 | CC[C@H](C)[C@H](NC(=O)[C@H](CCC(=O)O)NC(=O)[C@H](CO)NC(=O)[C@@H](NC(=O)[C@@H](N)CO)C(C)C)C(=O)N[C@@H](CCC(N)=O)C(=O)N[C@@H](CC(C)C)C(=O)N[C@@H](CCSC)C(=O)N[C@@H](Cc1cnc[nH]1)C(=O)N[C@@H](CC(N)=O)C(=O)N[C@@H](CC(C)C)C(=O)NCC(=O)N[C@@H](CCCCN)C(=O)N[C@@H](Cc1cnc[nH]1)C(=O)N[C@@H](CC(C)C)C(=O)N[C@@H](CC(N)=O)C(=O)N[C@@H](CO)C(=O)N[C@@H](CCSC)C(=O)N[C@@H](CCC(=O)O)C(=O)N[C@@H](CCCN=C(N)N)C(=O)N[C@H](C(=O)N[C@@H](CCC(=O)O)C(=O)N[C@@H](Cc1c[nH]c2ccccc12)C(=O)N[C@@H](CC(C)C)C(=O)N[C@@H](CCCN=C(N)N)C(=O)N[C@@H](CCCCN)C(=O)N[C@@H](CCCCN)C(=O)N[C@@H](CC(C)C)C(=O)N[C@@H](CCC(N)=O)C(=O)N[C@@H](CC(=O)O)C(=O)N[C@H](C(=O)N[C@@H](Cc1cnc[nH]1)C(=O)N[C@@H](CC(N)=O)C(=O)N[C@@H](Cc1ccccc1)C(=O)O)C(C)C)C(C)C [PTH(1-34)] | dose dependent increase | 65 | normal, steady state calcium levels with minimal fluctuation | marked reduction |  |  |  |  |  |  |  |  |  |  |  |  |  | 
2 | PTH(1-84): Natpara, PTH(1-84), polypeptide with the sequence of SEQ ID NO:1; the current standard of care | dose dependent increase |  |  |  | reduced | did not change | increased only during the first 8 hours | 42 | 71 | has not demonstrated an ability to reduce | anabolic effect | significant increase | 0.76 | minimal decrease | did not lead to increase in sCa | 8.1 | increases in lumbar spine and declines in the distal ⅓ radius | remained greater than pretreatment values
